{"source": "patent US10669545B2", "about": "“Tumor cell malignant transformation suppressor and anti-tumor agent” (JAPAN SCIENCE AND TECHNOLOGY AGENCY, priority 2015, dated 2020)", "assay_type_in_all_cases": "cell-based, human", "key": {"[1]": {"tested_on": "phosphorylated FAK (pFAK)", "test": "Western blotting of phosphorylated FAK", "conditions": "siRNA-transfected cells vs siNeg#1; not shown", "source_text": "Because phosphorylation of focal adhesion kinase (FAK), which is activated at Focal adhesion, has been associated with melanoma malignancy (refer to NPL 19), FAK change by ZIC5 was examined. Furthermore, focusing on Integrin, alpha 6 (ITGA6) and platelet-derived growth factor D (PDGFD) among the Focal adhesion-related genes in the altered genes by Zic5 knockdown, change in cells was examined. Specifically, a level of phosphorylated FAK (pFAK), total FAK (FAK), ITGA6, pro-PDGFD, and β-actin in A375 cells transfected with siZIC5 or siNeg was assessed by western blotting. Western blotting was performed in the same manner as above except that anti-pFAK antibody (manufactured by Signalway Antibody), anti-FAK antibody (manufactured by Acris), anti-β-actin antibody (manufactured by Sigma), anti-ITGA6 antibody (manufactured by GeneTex), and anti-PDGFD antibody (manufactured by Santa Cruz) were used."}, "[2]": {"tested_on": "stably Zic5 gene-expressed line (SK-MEL-28 cells)", "test": "Transwell Migration Assay, stably Zic5 gene-expressed line", "conditions": "normalized to total viable cells; siNeg#1 set to 1", "description": "Specifically, the stably Zic5 gene-expressed line and the stably Flag-expressed line were seeded in a 24-well plate into which an insert with 8-μm sized pores (manufactured by BD Biosciences) was put and were cultured in RPMI 1640 medium containing 10% FBS, and then the number of migrated cells was counted.\nThe influence of suppressing MLC2 phosphorylation on migration ability of cells was analyzed. Specifically, Transwell Migration Assay was performed in the same manner as above with the stably Zic5 gene-expressed line and the stably Flag-expressed line in a state of being treated or non-treated with a ROCK inhibitor (Y27632), and then the number of migrated cells was counted.\nThe number of migrated cells was normalized to a total number of viable cells. A relative cell number (n=3) in which the number of migrated cells transfected with siNeg#1 of each cell was set to 1 is shown in FIG. 29. The statistical difference was determined by the Tukey's multiple comparisons of means test (**: P<0.01, *: P<0.05)."}, "[3]": {"tested_on": "A375 cells", "test": "Cell morphology after siRNA transfection, A375 cells", "conditions": "not shown"}, "[4]": {"tested_on": "A375 cells", "test": "Cell proliferation / cell number count, A375 cells", "description": "In cell proliferation assay, A375 cells and SK-MEL-28 cells transfected with siZIC5#1, siZIC5#2, siNeg#1, or siNeg#2 described in Table 2 in the same manner as Example 1 were plated at 1,000 to 2,000 cells/well in 96-well plates. The number of cells transfected with each siRNA was measured over time. Regarding counting the number of cells, cell nuclei were stained with Hoechst 33342 (manufactured by Dojindo, Kumamoto, Japan), and the total cell number in each well was counted by using an IN Cell Analyzer 2000 (manufactured by GE Healthcare, Piscataway, N.J.).\n(§1) Furthermore, a cell cycle of each cell was examined with respect to A375 cells. An average value (SD) of percentages (%) of cells in G1 population, S population, and G2M population of each cell is shown in Table 9. […] As a result, percentages of cells in the S population and G2M population of A375 cells were reduced by PDGFD gene knockdown.\nIn addition, the number of cells of A375 cells transfected with siPDGFD#1, siPDGFD#2, or siNeg#1 was successively counted. The statistical difference was determined using the Dunnett's multiple comparisons of means test (**: P<0.01, *: P<0.05).\nThe result of a relative cell number (n=3) in which the number of cells of the cells treated with rat IgG was set to 1 is shown in FIG. 28. […]"}, "[5]": {"tested_on": "A375 cells", "test": "Cell cycle analysis (PI staining, flow cytometry), A375 cells", "conditions": "average value", "description": "In cell cycle analysis, first, the cells were cultured in serum-free medium for 24 hours and then cultured in media containing 10% FBS for 24 hours. Next, the cells were fixed, stained with propidium iodide (PI), and then flow cytometry analysis (SH800, manufactured by Sony) was performed. The obtained data was analyzed using analysis software, FlowJo (manufactured by TOMY DIGITAL BIOLOGY, Tokyo, Japan). As a result, a sub-G1 population of cells increased in the cells in which Zic5 gene knockdown occurred.\nas §1"}}, "data": [{"substance": "siPDGFD#1: siRNA for PDGFD gene; targeting sequence CAGGAATTACTCGGTCAATAT (SEQ. NO. 28) (listed as DNA, chemistry not given here)", "values": [{"measurement": "FAK phosphorylation (pFAK level)", "setting": "[1]", "result": "reduced FAK phosphorylation"}, {"measurement": "increase in the number of migrated cells by Zic5 gene overexpression", "setting": "[2]", "result": "completely suppressed"}, {"measurement": "morphological change of cells after siRNA transfection", "setting": "[3]", "result": "morphological change occurred"}, {"measurement": "relative cell number (siNeg#1 set to 1), cell proliferation rate", "setting": "[4]", "result": "decrease in cell proliferation rate"}, {"measurement": "percentage of cells in G1 population", "setting": "[5]", "result": 71.6, "unit": "%"}, {"measurement": "percentage of cells in G2M population", "setting": "[5]", "result": 18.6, "unit": "%"}, {"measurement": "percentage of cells in S population", "setting": "[5]", "result": 8.1, "unit": "%"}]}]}
